# Laboratory results from patent US8906946B2, “TRPM8 receptor antagonists” (Dompe' S.p.A., priority 2011, dated 2014).
# pIC50: −log10 of the molar value. Values joined by “and” are separate entries in the source; they are usually repeats but may differ in a detail not shown here. Equal values may be shown once.
# Columns and labels:
# [1] = Plasma Protein Binding, human; type: in vitro ADME
# [2] = t1/2 i.v. rat; conditions: in vivo, iv
# [3] = tested on: hepatocytes; test: Metabolic stability hepatocytes, human; type: in vitro ADME
# [4] = target: T1, human TRPM8 (Homo sapiens, UniProt Q7Z2W7); test: High-throughput FLIPR TETRA calcium fluorescence assay for TRPM8 antagonists in HEK293/hTRPM8 cells; type: cell-based; design: expressed in transfected cells; conditions: agonist Cooling Agent 10 at EC80, Ca2+ fluorescence
# T1 sequence (Q7Z2W7 whole entry): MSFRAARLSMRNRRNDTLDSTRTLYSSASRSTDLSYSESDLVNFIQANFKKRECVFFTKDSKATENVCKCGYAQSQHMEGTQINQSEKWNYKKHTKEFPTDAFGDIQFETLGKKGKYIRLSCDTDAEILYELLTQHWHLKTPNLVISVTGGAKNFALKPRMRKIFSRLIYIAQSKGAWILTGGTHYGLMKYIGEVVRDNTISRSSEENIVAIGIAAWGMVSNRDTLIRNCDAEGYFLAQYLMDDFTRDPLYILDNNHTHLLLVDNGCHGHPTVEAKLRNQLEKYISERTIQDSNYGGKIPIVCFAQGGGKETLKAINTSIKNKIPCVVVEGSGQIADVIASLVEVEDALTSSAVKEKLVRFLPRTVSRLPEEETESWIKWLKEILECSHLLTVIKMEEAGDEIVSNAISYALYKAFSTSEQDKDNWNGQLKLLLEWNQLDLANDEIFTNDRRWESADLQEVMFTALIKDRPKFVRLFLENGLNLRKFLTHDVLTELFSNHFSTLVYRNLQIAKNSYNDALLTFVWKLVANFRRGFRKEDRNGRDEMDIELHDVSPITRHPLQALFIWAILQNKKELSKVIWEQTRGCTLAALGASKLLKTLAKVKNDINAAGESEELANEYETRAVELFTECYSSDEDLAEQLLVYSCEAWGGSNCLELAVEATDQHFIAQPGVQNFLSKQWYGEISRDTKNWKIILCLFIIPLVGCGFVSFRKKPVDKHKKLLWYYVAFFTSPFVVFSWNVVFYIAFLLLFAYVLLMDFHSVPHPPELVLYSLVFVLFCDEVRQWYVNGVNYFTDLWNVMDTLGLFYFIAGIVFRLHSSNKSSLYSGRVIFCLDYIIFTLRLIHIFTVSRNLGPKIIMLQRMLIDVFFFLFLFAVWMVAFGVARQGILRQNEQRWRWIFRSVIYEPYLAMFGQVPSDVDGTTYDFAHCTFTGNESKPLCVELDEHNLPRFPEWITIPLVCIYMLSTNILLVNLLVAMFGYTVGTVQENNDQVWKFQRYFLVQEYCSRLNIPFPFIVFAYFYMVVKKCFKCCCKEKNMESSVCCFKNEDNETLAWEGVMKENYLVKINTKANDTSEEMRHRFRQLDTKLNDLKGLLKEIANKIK
# Description: A functional cell-based assay for the identification of TRPM8 receptor antagonists, optimised to allow high throughput screening at FLIPR^TETRA, was developed in HEK293 cells by stable pure clone selection and functional characterization with a fluorescent calcium sensitive dye.
# TRPM8 was cloned into the multiple clonig site of pcDNA3 mammalian expression vector; the obtained construct pcDNA3/hTRPM8 was fully sequence verified and used for the transfection of HEK293 cell line. HEK293 cells stably transfected with TRPM8 gene were maintained in Minimum essential medium. The cells were transfected with the pcDNA3/hTRPM8 vector by electroporation and then selected with medium containing 0.8 mg/ml G418 for 10-15 days.
# The following commercial compounds were used as ligands: • Activator: Cooling Agent 10 (Takasago CAS N. 87061-04-9) • Blocker: Capsazepine (SIGMA cat #D—5879)
# The experimental activities were performed using FLIPR^TETRA instruments.
# HEK293 cells stably transfected with TRPM8 gene were maintained in Minimum essential medium.
# The TRPM8 cell line was analysed for the response to a library of compounds using a Ca^2+ mobilization-dependent fluorescence signal in 384 wells microtiter plate format. The analysis was performed using the FLIPR^TETRA (MDC) with the ICCD Camera.
# The execution of the assay involved the use of three microtiter plates:
# 1. Assay plate, containing cells loaded with dye and prepared as follows:
# Cells were seeded at 15000 c/well in Poly-D-Lysine coated 384 wells Microtiter Plates in complete medium (25 μl/well).
# 24 h after seeding, the cell plates were washed with Tyrode assay buffer by the Microplate Washer and 10 μL of Tyrode assay buffer was left in each well.
# Cells were then loaded with 10 μL/well of the Fluo-4 NW dye solution by CyBi®-Well pipettor. Each bottle of Fluo4-NW dye (Molecular Probes cat. #F36206, component A) was re-suspended in 8 mL of Tyrode assay buffer and supplemented with 100 μL of water-soluble probenecid (MolecularProbes cat.#F36206, component B).
# Dye loaded cell plates were incubated for 1 h at room temperature.
# 2. Compound Dilution Plate (FIG. 1), containing diluted test compounds, formulated as follows: • Column 1: wells containing Assay Buffer plus DMSO 0.5% final • Column 2: wells alternating Max Signal Control in first injection (Maximum Response: Cooling Agent 10 at EC100, 100 μM) and Min Signal Control in first injection (Assay buffer plus 0.5% DMSO final); • Columns 3-22: wells containing Assay Buffer plus 0.5% DMSO final. To these wells the compounds to be tested were added at 3× concentration. • Column 23: alternating wells of Max Signal Control in second injection (Assay buffer) and Min Signal Control in second injection (Antagonist Capsazepine IC100, 50 μM) in Assay buffer plus 0.5% DMSO final; • Column 24: wells containing Capsazepine (Antagonist) at 8 concentrations in duplicate at final concentrations of […] in Assay buffer plus 0.5% DMSO final.
# 3. Activator Plate (FIG. 2), containing agonist Cooling Agent 10 at EC80, formulated as follows: • Column 1: Cooling Agent 10 (Agonist) at 8 concentrations dose response in duplicate at final concentrations of […] in Assay buffer; • Columns 2-24: Cooling Agent 10 (Agonist) at EC80 (3 fold concentrated, 20 μM final) in Assay buffer.
# The test was carried out according to a procedure comprising the following steps: • 1. The samples contained in the wells of the Compound Plate were added to the corresponding wells of the Assay Plate by the FLIPR^TETRA, thus resulting in the addition in Columns 3-22 of the test compounds at 3× concentration to the cells of the assay plates. No mixing was performed in the assay wells and the signal of the emitted fluorescence was recorded for 300 seconds. • 2.
# [5] = target: T1, human TRPM8; test: Selectivity analysis, calcium influx assay (Fluo-8, FLIPR TETRA), hTRPM8 in CHO cells; type: cell-based; design: expressed in transfected cells; host or cells: CHO
# Method: The following 3 cloned human channels were evaluated in this study. • 1. Cloned hTRPM8 channels (encoded by the human TRPM8 gene, stably expressed in CHO cells), • 2. Cloned hTRPV1 channels (encoded by the human TRPV1 gene, stably expressed in HEK293 cells), • 3. Cloned hTRPV4 channels (encoded by the human TRPV4 gene, stably expressed in CHO cells). […] The ability of compound (1) to act as an antagonist of TRPM8 was evaluated with a calcium influx assay. […] Values were considered significant and highlighted in yellow if the test article mean was three or more standard deviations away from the positive control agonist mean.
# [6] = tested on: rhythmic bladder contractions; test: Isovolumetric bladder model, intravesical protocol; type: in vivo, rat
# Method: Female rats were anesthetized with urethane. Ureters were ligated and sectioned. A catheter was inserted through the urinary meatus into the bladder before urethral ligature. Two protocols for testing compounds were used: intravenous (i.v.) or intravesical (i.ves.) administration.
# In the second protocol, the bladder was filled first 3 times every 5 min with 100 μL of a solution of solutol/NMP […] containing 0.756 mg of compound (1) or with 100 μL of vehicle, then with 100 μL of saline every 5 min until the occurrence of RBC. A maximal volume of 3 mL was infused. The threshold volume inducing RBC in each group was compared. […] Furthermore, the threshold volume (TV) in the group treated with compound (1) reached 3 mL without RBC occurrence whereas, in the vehicle group, RBC occurred in all rats with a mean volume of 0.7±0.09 ml.
# [7] = CHO, read-out: normalized % inhibition TRPM8
smiles,measurement,setting,value
"Cl.Clc1c(OCCNCc2ccco2)ccc2ccccc12 [Compound 1, 2-[(1-chloronaphthalen-2-yl)oxy]-N-(furan-2-ylmethyl)ethanaminium chloride]",fraction unbound at 10 μM,[1],0.02
same,half-life,[2],63 min
same,Metabolic stability hepatocytes (% remaining at 120 min @1 μM),[3],2.6%
same,pIC50,[4],> 5.00 and 7.15
same,inhibition at 0.001 µM,[5]; [7],-25.2%
same,inhibition at 0.01 µM,[5]; [7],21.4%
same,inhibition at 0.1 µM,[5]; [7],95.6%
same,inhibition at 1 µM,[5]; [7],95.6%
same,inhibition at 10 µM,[5]; [7],96.4%
same,pIC50,[5]; read-out: IC50 (TRPM8),7.15
same,effect on Amplitude of Micturition (AM),[6],did not change AM
same,effect on rhythmic bladder contractions (RBC),[6]; 3 x 100 μL containing 0.756 mg,completely abolished RBC
same,threshold volume (TV) inducing RBC,"[6]; maximal volume infused 3 mL, no RBC occurrence",> 3 mL
